Reference: US20240018166A1, “SULFONYL UREA NLRP3 INFLAMMASOME INHIBITORS” (Venatorx Pharmaceuticals, Inc., priority 2020, published 2024)

Tests used:
IL-1β = IL-1β inhibition assay (ELISA/HTRF of culture supernatants); type: cell-based; conditions: Homo sapiens, PMA-differentiated THP-1 cells, tested 10 μM to 0.003 μM
Description: Human monocyte-like THP-1 cells were grown in RPMI media supplemented with 10% FBS (growth media) at 37° C., 5% CO2. Cell cultures were passaged every three days and maintained at a density of 5×10^5 to 1×10^6 cells per mL.
Compounds were prepared as 10 mM stock solutions in 100% DMSO. […] Each 200× dilution was then diluted 20-fold in growth media (step down dilution) to yield a 10× final assay concentration range. All compounds were tested over a final assay concentration range of 10 μM to 0.003 μM.
The level of IL-10 in supernatants from PMA-differentiated THP-1 cells was determined by ELISA using either the R&D Systems Human IL-1 beta/IL-1F2 Quantikine ELISA or the cisbio HTRF human IL 1 beta kit. Manufacturer's protocols were followed without deviation.
Background values were subtracted and resulting values were converted to percentage of vehicle-treated controls. Data was analyzed via GraphPad Prism 7.0 using a non-linear regression (variable slope (four-parameter)) equation.
Table 2 provides IL-10 ELISA EC50 values for example compounds. A indicates EC50>10 μM; B indicates EC50 between 1 and 10 μM (inclusive); C indicates EC50<1 μM.

[1] = MTT cell viability assay, THP-1 cells; type: cell-based; conditions: human, unstimulated THP-1 cells, read-out: THP-1 Cytotoxicity CC50
Description: In order to assess the cytotoxicity of the compounds, an MTT cell viability assay was performed in either unstimulated THP-1 or HepG2 cells as follows. 5×10^4 THP-1 or 5×10^3 HepG2 cells were seeded into each well of a 96-well plate in 90 μL of media. Compounds were added to cells as described for the IL-10 assay and returned to the incubator for an additional 72 hours. Next, 25 μL of MTT solution (5 mg/mL in sterile PBS) was added to each well. Plates were incubated for 3 hours at 37° C., 5% CO2. Next, for THP-1 cells, 100 μl of MTT solubilization solution (40% Dimethylformamide, 2% glacial acetic acid, 16% sodium dodecyl sulfate) was then added to each well and plates were incubated at room temperature in the dark overnight. For HepG2 cells, media was aspirated, 50 μL of DMSO was added and plates were mixed briefly with an orbital plate shaker. Absorbance at 570 nm was measured using a Perkin-Elmer EnVision plate reader.
Absorbance values were converted to percentage of vehicle-treated controls. Data was then analyzed using a non-linear regression (variable slope (four-parameter)) equation in GraphPad Prism 7.0.
Table 2 provides THP-1 cytotoxicity assay CC50 values for example compounds. A indicates CC50>10 μM; B indicates CC50 between 1 and 10 μM (inclusive); C indicates CC50<1 μM. NT, not tested.

| EC50 (IL-1β) [µM] | Structure (SMILES) | CC50 at 72 h [1] [µM] |
| --- | --- | --- |
| 1 to 10 | COc1ccc(S(=O)(=O)NC(=O)Nc2c3c(cc4c2CCC4)CCC3)cc1CCCB1O[C@@H]2C[C@@H]3C[C@@H](C3(C)C)[C@]2(C)O1 [Example 50, N-((1,2,3,5,6,7-hexahydro-s-indacen-4-yl)carbamoyl)-4-methoxy-3-(3-((3aS,4S,6S,7aR)-3a,5,5-trimethylhexahydro-4,6-methanobenzo[d][1,3,2]dioxaborol-2-yl)propyl)benzenesulfonamide] | > 10 |
| 1 to 10 | CC(C)c1cccc(C(C)C)c1NC(=O)NS(=O)(=O)c1ccc(B(O)O)cc1 [Example 3, (4-(N-((2,6-diisopropylphenyl)carbamoyl)sulfamoyl)phenyl)boronic acid] | > 10 |
| 1 to 10 | O=C(Nc1c2c(cc3c1CCC3)CCC2)NS(=O)(=O)c1ccc2c(c1)CCB(O)O2 [Example 33, N-((1,2,3,5,6,7-hexahydro-s-indacen-4-yl)carbamoyl)-2-hydroxy-3,4-dihydro-2H-benzo[e][1,2]oxaborinine-6-sulfonamide] | > 10 |
| > 10 | CC(C)n1cc(S(=O)(=O)NC(=O)Nc2cc(B(O)O)ccc2C(C)(C)C)cn1 [Example 23, (4-(tert-butyl)-3-(3-((1-isopropyl-1H-pyrazol-4-yl)sulfonyl)ureido)phenyl)boronic acid] | > 10 |
| 1 to 10 | COc1ccc(S(=O)(=O)NC(=O)Nc2c3c(cc4c2CCC4)CCC3)cc1CCB1OC(C)(C)C(C)(C)O1 [Example 32, N-((1,2,3,5,6,7-hexahydro-s-indacen-4-yl)carbamoyl)-4-methoxy-3-(2-(4,4,5,5-tetramethyl-1,3,2-dioxaborolan-2-yl)ethyl)benzenesulfonamide] | > 10 |
| 1 to 10 | Cc1c(B2OC(C)(C)C(C)(C)O2)cccc1S(=O)(=O)NC(=O)Nc1c2c(cc3c1CCC3)CCC2 [Example 16, N-((1,2,3,5,6,7-hexahydro-s-indacen-4-yl)carbamoyl)-2-methyl-3-(4,4,5,5-tetramethyl-1,3,2-dioxaborolan-2-yl)benzenesulfonamide] | > 10 |
| 1 to 10 | O=C(Nc1c2c(cc3c1CCC3)CCC2)NS(=O)(=O)c1ccc(B(O)O)s1 [Example 12, (5-(N-((1,2,3,5,6,7-hexahydro-s-indacen-4-yl)carbamoyl)sulfamoyl)thiophen-2-yl)boronic acid] | > 10 |
| 1 to 10 | O=C(Nc1c2c(cc3c1CCC3)CCC2)NS(=O)(=O)c1ccc(CB(O)O)c(O)c1 [Example 44, (4-(N-((1,2,3,5,6,7-hexahydro-s-indacen-4-yl)carbamoyl)sulfamoyl)-2-hydroxybenzyl)boronic acid] | > 10 |
| 1 to 10 | Cc1c(B(O)O)cccc1S(=O)(=O)NC(=O)Nc1c2c(cc3c1CCC3)CCC2 [Example 15, (3-(N-((1,2,3,5,6,7-hexahydro-s-indacen-4-yl)carbamoyl)sulfamoyl)-2-methylphenyl)boronic acid] | > 10 |
| > 10 | CC(C)c1cccc(C(C)C)c1NC(=O)NS(=O)(=O)c1ccc(B2O[C@@H]3C[C@@H]4C[C@@H](C4(C)C)[C@]3(C)O2)cc1 [Example 4, N-((2,6-diisopropylphenyl)carbamoyl)-4-((3aS,4S,6S,7aR)-3a,5,5-trimethylhexahydro-4,6-methanobenzo[d][1,3,2]dioxaborol-2-yl)benzenesulfonamide] | > 10 |
| > 10 | CC(C)n1cc(S(=O)(=O)NC(=O)Nc2cc(B3OC(C)(C)C(C)(C)O3)ccc2C(C)(C)C)cn1 [Example 22, N-((2-(tert-butyl)-5-(4,4,5,5-tetramethyl-1,3,2-dioxaborolan-2-yl)phenyl)carbamoyl)-1-isopropyl-1H-pyrazole-4-sulfonamide] | > 10 |
| > 10 | O=C(Nc1c2c(cc3c1CCC3)CCC2)NS(=O)(=O)c1ccccc1B(O)O [Example 10, (2-(N-((1,2,3,5,6,7-hexahydro-s-indacen-4-yl)carbamoyl)sulfamoyl)phenyl)boronic acid] | > 10 |
| > 10 | CC(C)c1cccc(C(C)C)c1NC(=O)NS(=O)(=O)c1ccccc1B(O)O [Example 11, (2-(N-((2,6-diisopropylphenyl)carbamoyl)sulfamoyl)phenyl)boronic acid] | > 10 |
| 1 to 10 | CC(C)c1cc(B2OC(C)(C)C(C)(C)O2)cc(C(C)C)c1NC(=O)NS(=O)(=O)c1ccn(C(C)C)n1 [Example 30, N-((2,6-diisopropyl-4-(4,4,5,5-tetramethyl-1,3,2-dioxaborolan-2-yl)phenyl)carbamoyl)-1-isopropyl-1H-pyrazole-3-sulfonamide] | > 10 |
| < 1 | C[N+]12CCO[B-]1(c1cccc(S(=O)(=O)NC(=O)Nc3c4c(cc5c3CCC5)CCC4)c1)OCC2 (stereo not drawn) [Example 28, N-((1,2,3,5,6,7-hexahydro-s-indacen-4-yl)carbamoyl)-3-(4-methyltetrahydro-2H-414,814-[1,3,2]oxazaborolo[2,3-b][1,3,2]oxazaborol-8-yl)benzenesulfonamide] | > 10 |
| 1 to 10 | COc1ccc(S(=O)(=O)NC(=O)Nc2c3c(cc4c2CCC4)CCC3)cc1B(O)O [Example 43, (5-(N-((1,2,3,5,6,7-hexahydro-s-indacen-4-yl)carbamoyl)sulfamoyl)-2-methoxyphenyl)boronic acid] | > 10 |
| < 1 | C[N+]12CC(=O)O[B-]1(c1ccc(S(=O)(=O)NC(=O)Nc3c4c(cc5c3CCC5)CCC4)cc1)OC(=O)C2 (stereo not drawn) [Example 27, N-((1,2,3,5,6,7-hexahydro-s-indacen-4-yl)carbamoyl)-4-(4-methyl-2,6-dioxotetrahydro-2H-414,814-[1,3,2]oxazaborolo[2,3-b][1,3,2]oxazaborol-8-yl)benzenesulfonamide] | > 10 |
| < 1 | COc1cc(S(=O)(=O)NC(=O)Nc2c3c(cc4c2CCC4)CCC3)ccc1CB1O[C@@H]2C[C@@H]3C[C@@H](C3(C)C)[C@]2(C)O1 [Example 42, N-((1,2,3,5,6,7-hexahydro-s-indacen-4-yl)carbamoyl)-3-methoxy-4-(((3aS,4S,6S,7aR)-3a,5,5-trimethylhexahydro-4,6-methanobenzo[d][1,3,2]dioxaborol-2-yl)methyl)benzenesulfonamide] | > 10 |
| > 10 | CC(C)c1cc(B(O)O)cc(C(C)C)c1NC(=O)NS(=O)(=O)c1ccn(C(C)C)n1 [Example 31, (3,5-diisopropyl-4-(3-((1-isopropyl-1H-pyrazol-3-yl)sulfonyl)ureido)phenyl)boronic acid] | > 10 |
| > 10 | CC(C)c1cc(B(O)O)ccc1NC(=O)NS(=O)(=O)c1cnn(C(C)C)c1 [Example 19, (3-isopropyl-4-(3-((1-isopropyl-1H-pyrazol-4-yl)sulfonyl)ureido)phenyl)boronic acid] | > 10 |
| 1 to 10 | O=C(Nc1c2c(cc3c1CCC3)CCC2)NS(=O)(=O)c1ccc(O)c(CCCB(O)O)c1 [Example 37, (3-(5-(N-((1,2,3,5,6,7-hexahydro-s-indacen-4-yl)carbamoyl)sulfamoyl)-2-hydroxyphenyl)propyl)boronic acid] | > 10 |
| > 10 | O=C(Nc1c2c(cc3c1CCC3)CCC2)NS(=O)(=O)c1ccc2c(c1)B(O)OC2=O [Example 36, N-((1,2,3,5,6,7-hexahydro-s-indacen-4-yl)carbamoyl)-1-hydroxy-3-oxo-1,3-dihydrobenzo[c][1,2]oxaborole-6-sulfonamide] | > 10 |
| 1 to 10 | COc1ccc(S(=O)(=O)NC(=O)Nc2c3c(cc4c2CCC4)CCC3)cc1CB(O)O [Example 39, (5-(N-((1,2,3,5,6,7-hexahydro-s-indacen-4-yl)carbamoyl)sulfamoyl)-2-methoxybenzyl)boronic acid] | > 10 |
| 1 to 10 | CC1(C)[C@@H]2C[C@H]3OB(c4cccc(S(=O)(=O)NC(=O)Nc5c6c(cc7c5CCC7)CCC6)c4)O[C@@]3(C)[C@H]1C2 [Example 2, N-((1,2,3,5,6,7-hexahydro-s-indacen-4-yl)carbamoyl)-3-((3aS,4S,6S,7aR)-3a,5,5-trimethylhexahydro-4,6-methanobenzo[d][1,3,2]dioxaborol-2-yl)benzenesulfonamide] | > 10 |
